Assay results reported in PMC11120720, “Linking Variability in Phytochemical Composition with Safety Profile of Thymus carnosus Boiss. Extracts: Effect of Major Compounds and Evaluation of Markers of Oxidative Stress and Cell Death” (International Journal of Molecular Sciences, 2024).
Where two headings read alike, the source gives them in different places.

Key:
Caco-2 cells [1] = assay: Alamar Blue cell viability assay, Caco-2; format: cell-based, human; settings: Homo sapiens, Caco-2
Description: (§1) The safety profile of T. carnosus AD and HE extracts was evaluated in Caco-2 and HepG2 cells using an Alamar Blue® (Invitrogen; Alfagene, Lisboa, Portugal) assay. An initial screening was performed for all extracts at concentrations ranging between 100 and 1000 µg/mL. Due to the higher toxicity of the HE extracts, which was previously described for various extracts of Thymus species using the same extraction methods (e.g., T. mastichina and Thymus zygis), a different set of concentrations was used for the HE extracts (between 100 and 300 µg/mL for Caco-2 cells and 50 and 150 µg/mL for HepG2 cells). Figure 1 presents the data related to the cell viability assays in Caco-2 (panels A–E) and HepG2 cells (panels F–J) exposed to T. carnosus extracts, as indicated.
(§2) The safety profile of T. carnosus extracts was assessed in Caco-2 and HepG2 cells. Caco-2 (human colon adenocarcinoma cell line) were obtained from CLS (Cell Lines Service, Eppelheim, Germany), and HepG2 (human hepatocellular carcinoma cell line) were obtained from ATCC (American Type Culture Collection, Manassas, VA, USA).
(§3) Cell culture maintenance, handling, subculturing, and seeding were performed as described by Silva et al., 2020 [5], and cell viability was assessed using an Alamar Blue® assay, as described by Andreani et al., 2014 [64]. Concentrations ranged between 100 and 1000 µg/mL for AD extracts in both cell lines and 100 to 300 µg/mL or 50 to 150 µg/mL for HE extracts in Caco-2 and HepG2 cells, respectively. The effect of individual compounds on cell viability was assessed for concentrations ranging from 50 to 300 µM. All test solutions were prepared by diluting the samples in FBS-free culture media from the stock solutions described in Section 3.2, just prior to being used.
(§4) The results are presented as mean ± SD of at least three independent assays. The calculation of IC50 values was performed as described by Silva et al., 2020 [5]. Data analysis, graphical design, and statistical analysis were performed using Microsoft Office Excel (Professional Plus 2019; Microsoft Corporation, Washington, DC, USA) and GraphPad Prism (Version 8; GraphPad Software Inc., San Diego, CA, USA). Flow cytometry data analysis was performed using BD Accuri™ C6 Software, version 1.0.264.21 (Becton Dickinson, San Diego, CA, USA).

HepG2 cells [2] = assay: Alamar Blue cell viability assay, HepG2; format: cell-based, human; settings: Homo sapiens, HepG2
Description: as §1, §2, §3, §4

Caco-2 cells [3] = assay: Intracellular ROS (DCFDA, flow cytometry), Caco-2; format: cell-based; settings: compound 50 µM, 24 h
Description: (§5) The cells were then equally divided for each assay.
(§6) Intracellular ROS level assessment was performed as described by Silva et al., 2022 [65], using dichlorodihydrofluorescein diacetate (DCFDA). Cells obtained in the previous step were centrifuged, the supernatant discarded, and 200 µL of DCFDA (10 µM in FBS-free DMEM) was added. Cells were incubated for 45 min (37 °C, in the dark), washed to remove excess probe, and resuspended in PBS for data acquisition.

HepG2 cells [4] = assay: Intracellular ROS (DCFDA, flow cytometry), HepG2; format: cell-based, human; settings: compound 50 µM, 24 h
Description: as §5, §6

HepG2 cells [5] = assay: Mitochondrial membrane potential (JC-1, flow cytometry), HepG2; format: cell-based, human; settings: compound 50 µM, 24 h
Description: Flow cytometry was used to analyze the effect of T. carnosus extracts on intracellular ROS, modulation of mitochondrial membrane potential (MMP), cell cycle arrest, and apoptotic/necrotic cell death induction.
Both one- and two-color assays were performed using a BD Accuri™ C6 cytometer (Becton Dickinson, Franklin Lakes, NJ, USA), and 10,000 gated events were collected from each sample [1]. For flow cytometry assays, cells were handled as described previously but seeded at a density 5 × 10^4 cells/mL (750 μL/well) in 12-well plates. Caco-2 and HepG2 cells were incubated for 24 h with the extracts (100 µg/mL) or individual phytochemicals (50 µM) diluted in FBS-free culture media h. After incubation, test solutions were removed; the cells were washed with PBS and detached from the plates using trypsin-EDTA. Once transferred to centrifuge tubes, the cells were centrifuged (bench micro-centrifuge; 3000 rpm; 3 min), the supernatant was discarded, and a new wash cycle was performed. The cells were then equally divided for each assay. A negative control was used in all assays consisting of nonexposed cells incubated only with culture media.
Mitochondrial membrane potential (MMP) was evaluated using 5,5″,6,6″-tetrachloro-1,1″,3,3″-tetraethylbenzimidazolylcarbocyanineiodide (JC-1). Cells were processed as described for DCFDA but incubated with 200 µL of JC-1 (2 µM, in FBS-free DMEM) for 20 min (37 °C, in the dark).

Caco-2 cells [6] = assay: Cell cycle arrest (PI, flow cytometry), Caco-2; format: cell-based; settings: compound 50 µM, 24 h; listed as UA
Description: as §5
(§7) Cell cycle arrest assessment was performed as described in [1]. Cells were processed as described above until cell detachment and centrifuged, after which the second washing step was performed with ice-cold PBS (0 °C). After centrifugation, the supernatant was discarded, and cells were fixed with 500 µL of ethanol:PBS solution (70:30, % v/v, previously cooled at −20 °C) for at least 4 h at −20 °C. After fixation, two washing cycles were performed: the first with ice-cold PBS (0 °C) and the second with room-temperature PBS, followed by the addition of 200 µL of a PBS solution containing PI (50 µg/mL), RNAse A (50 µg/mL), and Triton X-100 (0.1%). Cells were incubated for 30 min at 37 °C, and then cells were washed once with PBS to remove the staining solution. After resuspension in PBS, the data were acquired.

HepG2 cells [7] = assay: Cell cycle arrest (PI, flow cytometry), HepG2; format: cell-based, human; settings: compound 50 µM, 24 h
Description: as §5, §7

Caco-2 cells [8] = assay: Annexin V-FITC/PI apoptosis/necrosis, Caco-2; format: cell-based; settings: compound 50 µM, 24 h
Description: as §5
(§8) For the assessment of apoptotic/necrotic cell death, an Annexin V-FITC (Thermo Fisher Scientific, Waltham, MA, USA) and propidium iodide (PI; Merck, Darmstadt, Germany) double-staining assay was used to evaluate the apoptotic/necrotic cell death induced by T. carnosus extracts and by individual phytochemicals, as described previously. Briefly, after detachment and washing, the supernatant was discarded, and 200 µL of Annexin V-FITC (1:200 dilution in Annexin-binding buffer [10 mM HEPES sodium salt, 150 mM NaCl, 5 mM KCl, 5 mM MgCl2, and 1.8 mM CaCl2; pH = 7.4]) was added. Cells were incubated for 20 min (room temperature, in the dark). After incubation, 5 µL of propidium iodide (PI; 50 µg/mL) was added, the cells were incubated for 5 min on ice (in the dark), and the data were acquired.

HepG2 cells [9] = assay: Annexin V-FITC/PI apoptosis/necrosis, HepG2; format: cell-based, human; settings: compound 50 µM, 24 h
Description: as §5, §8

[10] = system: hepatocarcinoma cells (HuH7); design: method as in PMID 20415421; settings: 20-80 µM; cited from earlier work
[11] = system: human glioblastoma cells (DBTRG-05MG); design: method as in PMID 25131308; settings: cited from earlier work
[12] = system: colorectal cancer (HCT15) cells; design: method as in PMID 12046077; settings: cited from earlier work
[13] = design: method as in PMID 31344882, PMID 26042707; settings: cited from earlier work
HepG2 cells [14] = settings: read-out: IC50, HepG2 cells; 72 h; cited from earlier work

Question: Which IC50 (Caco-2 cells [1]; 24 h exposure, read-out: IC50 (µM) - Caco-2 cells: 24 h) does the source give for `C[C@H]1[C@H](C)CC[C@]2(C(=O)O)CC[C@]3(C)C(=CC[C@@H]4[C@@]5(C)CC[C@H](O)C(C)(C)[C@@H]5CC[C@]43C)[C@H]12` [Ursolic acid, ursolic acid] here?
Answer: The IC50 was 59 ± 1.35 µM.

Question: What about the IC50 (Caco-2 cells [1]; 48 h exposure, read-out: IC50 (µM) - Caco-2 cells: 48 h) of the same compound?
Answer: The IC50 was 44.3 ± 2.31 µM.

Question: What about the IC50 (HepG2 cells [2]; 24 h exposure, read-out: IC50 (µM) - HepG2 cells: 24 h) of the same compound?
Answer: Its IC50 is 79.6 ± 2.45 µM.

Question: And the IC50 (HepG2 cells [2]; 48 h exposure, read-out: IC50 (µM) - HepG2 cells: 48 h)?
Answer: Its IC50 is 75.2 ± 1.97 µM.

Question: What about the “change in intracellular ROS, Caco-2” value (Caco-2 cells [3]) of the same compound?
Answer: The value was “increase in ROS”.

Question: And the “change in intracellular ROS, HepG2” value (HepG2 cells [4])?
Answer: Its value is “significant (p < 0.05) increase in intracellular HepG2 ROS levels”.

Question: And the “MMP modulation, HepG2” value (HepG2 cells [5])?
Answer: Its value is “slight increase”.

Question: What about the “cell cycle effect, Caco-2” value (Caco-2 cells [6]) of the same compound?
Answer: Its value is “cell cycle arrest in G0/G1”.

Question: And the “cell cycle effect, HepG2” value (HepG2 cells [7])?
Answer: The value was “no UA-induced cytostatic effect”.

Question: And the “percentage of cells in late apoptosis, Caco-2” value (Caco-2 cells [8])?
Answer: Its value is ~ 70%.

Question: And the “percentage of cells in necrosis, Caco-2” value (Caco-2 cells [8])?
Answer: The value was ~ 12%.

Question: And the “cell death induction, HepG2” value (HepG2 cells [9])?
Answer: Its value is “only slightly increased (p < 0.05) the percentage of necrotic cells”.

Question: And the “MMP modulation, HuH7” value [10]?
Answer: Its value is “reduce MMP”.

Question: And the “cell death type, DBTRG-05MG” value ([11]; 17.50 µM)?
Answer: Its value is “mitochondria-dependent necrosis”.

Question: And the “MMP modulation, DBTRG-05MG” value [11]?
Answer: The value was “transient hyperpolarization of the mitochondria membrane”.

Question: And the “cell cycle effect, HCT15” value [12]?
Answer: Its value is “cytostatic effect in the G0/G1 phase”.

Question: And the “lipophilicity” value [13]?
Answer: The value was “high lipophilicity”.

Question: What about the “water solubility” value [13] of the same compound?
Answer: Its value is “poor water solubility”.

Question: And the IC50 (HepG2 cells [14])?
Answer: The IC50 was 41 µM.
